Measurements: patent publication US20240226343A1, “NEUROPEPTIDE Y1 RECEPTOR (NPY1R) TARGETED THERAPEUTICS AND USES THEREOF” (RADIONETICS ONCOLOGY, INC., priority 2022, published 2024)

The compounds below were run against T1, hNPY1R (Homo sapiens, UniProt P25929) (assay: NPY1R binding assay: SK-N-MC membranes, [125I]-Peptide YY (human) competition). Details: data obtained after 60 minutes at 37° C.; SK-N-MC membranes; [125I]-Peptide YY 0.05 nM; read-out: hNPY1R binding Ki* †.
T1 construct: SK-N-MC cells endogenously expressing the NPY1R receptor; endogenous in cells; host or cells: SK-N-MC cells (crude membrane fractions)
T1 sequence (P25929 1-384): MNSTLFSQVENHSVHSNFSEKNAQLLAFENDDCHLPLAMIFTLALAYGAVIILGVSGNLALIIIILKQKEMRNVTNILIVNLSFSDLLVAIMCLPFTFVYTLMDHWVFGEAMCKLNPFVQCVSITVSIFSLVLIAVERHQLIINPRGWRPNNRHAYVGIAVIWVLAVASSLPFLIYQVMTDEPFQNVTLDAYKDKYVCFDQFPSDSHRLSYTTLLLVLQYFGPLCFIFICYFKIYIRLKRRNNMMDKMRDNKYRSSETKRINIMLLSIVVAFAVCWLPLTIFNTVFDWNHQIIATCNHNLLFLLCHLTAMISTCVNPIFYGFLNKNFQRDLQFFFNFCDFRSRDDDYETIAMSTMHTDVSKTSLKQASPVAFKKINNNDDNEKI
Experimental: Crude membrane fractions are prepared from SK-N-MC cells endogenously expressing the NPY1R receptor. The cells are grown to 85-100% confluence on standard tissue culture dishes in Eagle's Minimum Essential Medium supplemented with 10% dialyzed FBS. To prepare membranes, cells are scraped and collected in 1× Dulbecco's phosphate buffered saline and then pelleted at 1000 RPM's. The cell pellet is reconstituted in membrane preparation buffer (20 mM HEPES, 6 mM MgCl2 and 1 mM EGTA, protease inhibitor tablets, pH 7.4) and placed in a cell disruption vessel at 1000 PSI for 30 minutes on ice. The pressurized contents are then released and spun down at 1000 RPMs and the supernatant is collected and further centrifuged at 15,000 RPMs to pellet the membranes. The membrane pellet is resuspended in membrane preparation buffer, snap frozen and stored at −80° C. for later use.
[…] Assay contents are then filtered through unifilter GF/C microplates and washed with 9×400 μl of cold wash buffer (25 mM HEPES, 5 mM MgCl2, 1 mM CaCl2), 500 mM NaCl, 0.1% Tween-20, pH 7.4). Assay plates are read using a Top Count NXT and Ki values for compounds are determined using a GraphPad Prism 6 non-linear regression analysis.

Compound | Ki
CCC(=O)NCCNC(=O)/N=C(/N)NCCC[C@@H](NC(=O)C(c1ccccc1)c1cccc(OCCCCNC(=O)CNC(=O)[C@@H](CC(N)=O)NC(=O)CN2CCN(CC(=O)O)CCN(CC(=O)O)CCN(CC(=O)O)CC2)c1)C(=O)NCc1ccc(O)cc1 (single isomer, unassigned) [Compound 112B] | < 10 nM
CCC(=O)NCCNC(=O)/N=C(/N)NCCC[C@@H](NC(=O)C(c1ccccc1)c1ccc(NCCCNc2c(NCCNC(=O)CN3CCN(CC(=O)O)CCN(CC(=O)O)CCN(CC(=O)O)CC3)c(=O)c2=O)cc1)C(=O)NCc1ccc(O)cc1 (single isomer, unassigned) [Compound 124A] | 10 to 100 nM
CCC(=O)NCCNC(=O)/N=C(/N)NCCC[C@@H](NC(=O)C(c1ccccc1)c1cccc(OCCCCNC(=O)CCC(NC(=O)CN2CCN(CC(=O)O)CCN(CC(=O)O)CCN(CC(=O)O)CC2)C(=O)O)c1)C(=O)NCc1ccc(O)cc1 (single isomer, unassigned) [Compound 110A] | 10 to 100 nM
CCC(=O)NCCNC(=O)/N=C(/N)NCCC[C@@H](NC(=O)C(c1ccccc1)c1cccc(OCCCCNC(=O)[C@H](CS(=O)(=O)O)NC(=O)CN2CCN(CC(=O)O)CCN(CC(=O)O)CCN(CC(=O)O)CC2)c1)C(=O)NCc1ccc(O)cc1 (single isomer, unassigned) [Compound 107A] | 10 to 100 nM
CCC(=O)NCCNC(=O)/N=C(/N)NCCC[C@@H](NC(=O)C(c1ccccc1)c1cccc(OCCCCNC(=O)CCOCCNC(=O)CN2CCN(CC(=O)O)CCN(CC(=O)O)CCN(CC(=O)O)CC2)c1)C(=O)NCc1ccc(O)cc1 (single isomer, unassigned) [Compound 108A] | < 10 nM
CCC(=O)NCCNC(=O)/N=C(/N)NCCC[C@@H](NC(=O)C(c1ccccc1)c1cccc(OCCCCNC(=O)[C@H](N)CCCCNC(=O)CN2CCN(CC(=O)O)CCN(CC(=O)O)CCN(CC(=O)O)CC2)c1)C(=O)NCc1ccc(O)cc1 (single isomer, unassigned) [Compound 109A] | < 10 nM
CCC(=O)NCCNC(=O)/N=C(/N)NCCC[C@@H](NC(=O)C(c1ccccc1)c1cccc(OCCCCNC(=O)CNC(=O)[C@@H](CC(N)=O)NC(=O)CN2CCN(CC(=O)O)CCN(CC(=O)O)CCN(CC(=O)O)CC2)c1)C(=O)NCc1ccc(O)cc1 (single isomer, unassigned) [Compound 112A] | 10 to 100 nM
CCC(=O)NCCNC(=O)/N=C(/N)NCCC[C@@H](NC(=O)C(c1ccccc1)c1ccc(NCCCNC(=O)CCOCCOCCNC(=O)CN2CCN(CC(=O)O)CCN(CC(=O)O)CCN(CC(=O)O)CC2)cc1)C(=O)NCc1ccc(O)cc1 (single isomer, unassigned) [Compound 103A] | 10 to 100 nM

Same assay, conditions: data obtained after 120 minutes at rt; SK-N-MC membranes; [125I]-Peptide YY; read-out: hNPY.R binding Ki* ††

Compound | Ki
CCC(=O)NCCNC(=O)/N=C(/N)NCCC[C@@H](NC(=O)C(c1ccccc1)c1ccc(NCCCNc2c(NCCCCCCNC(=O)CN3CCN(CC(=O)O)CCN(CC(=O)O)CCN(CC(=O)O)CC3)c(=O)c2=O)cc1)C(=O)NCc1ccc(O)cc1 (single isomer, unassigned) [Compound 156] | < 10 nM
CCC(=O)NCCNC(=O)/N=C(/N)NCCC[C@@H](NC(=O)C(c1ccccc1)c1ccc(NCC(=O)N(C)CCCN(C)CCCN(C)C(=O)CN2CCN(CC(=O)O)CCN(CC(=O)O)CCN(CC(=O)O)CC2)cc1)C(=O)NCc1ccc(O)cc1 (single isomer, unassigned) [Compound 139A] | < 10 nM
CCC(=O)NCCNC(=O)/N=C(/N)NCCC[C@@H](NC(=O)C(c1ccccc1)c1ccc(NCCCNc2c(NCCNC(=O)CN3CCN(CC(=O)O)CCN(CC(=O)O)CCN(CC(=O)O)CC3)c(=O)c2=O)cc1)C(=O)NCc1ccc(O)cc1 (single isomer, unassigned) [Compound 124A] | < 10 nM
CCC(=O)NCCNC(=O)/N=C(/N)NCCC[C@@H](NC(=O)C(c1ccccc1)c1ccc(NCCCNC(=O)[C@H](N)CCCCNC(=O)CN2CCN(CC(=O)O)CCN(CC(=O)O)CCN(CC(=O)O)CC2)cc1)C(=O)NCc1ccc(O)cc1 (single isomer, unassigned) [Compound 132B] | < 10 nM
CCC(=O)NCCNC(=O)/N=C(/N)NCCC[C@@H](NC(=O)C(c1ccccc1)c1cccc(OCCCCNc2c(NCCNC(=O)[C@@H](CN)NC(=O)CN3CCN(CC(=O)O)CCN(CC(=O)O)CCN(CC(=O)O)CC3)c(=O)c2=O)c1)C(=O)NCc1ccc(O)cc1 (stereo in doubt) [Compound 115B-In, Indium (III) 2,2′,2″-(10-(2-(((R)-3-amino-1-((2-((2-((4-(3-((R,Z)-9-amino-4-((4-hydroxybenzyl)carbamoyl)-2,11,16-trioxo-1-phenyl-3,8,10,12,15-pentaazaoctadec-9-en-1-yl)phenoxy)butyl)amino)-3,4-dioxocyclobut-1-en-1-yl)amino)ethyl)amino)-1-oxopropan-2-yl)amino)-2-oxoethyl)-1,4,7,10-tetraaza-cyclododecane-1,4,7-triyl)triacetate] | < 10 nM
CCC(=O)NCCNC(=O)/N=C(/N)NCCC[C@@H](NC(=O)C(c1ccccc1)c1ccc(NCCCNC(=O)CN2CCC(NC(=O)CN3CCN(CC(=O)O)CCN(CC(=O)O)CCN(CC(=O)O)CC3)CC2)cc1)C(=O)NCc1ccc(O)cc1 (single isomer, unassigned) [Compound 133B] | < 10 nM
CCNC(=O)/N=C(/N)NCCC[C@@H](NC(=O)[C@@H](c1ccccc1)c1ccc(NCCCNC(=O)[C@H](N)CCCCNC(=O)CN2CCN(CC(=O)O)CCN(CC(=O)O)CCN(CC(=O)O)CC2)cc1)C(=O)NCc1ccc(O)cc1 (single isomer, unassigned) [Compound 144A] | < 10 nM

Other lines, results leading:

Ki | Compound
< 10 nM | CCC(=O)NCCNC(=O)/N=C(/N)NCCC[C@@H](NC(=O)C(c1ccccc1)c1ccc(NCCCNC(=O)[C@H](N)CCCNC(=O)[C@@H](Cc2ccc(-c3ccccc3)cc2)NC(=O)CN2CCN(CC(=O)O)CCN(CC(=O)O)CCN(CC(=O)O)CC2)cc1)C(=O)NCc1ccc(O)cc1 (single isomer, unassigned) [Compound 134A]
< 10 nM | CCC(=O)NCCNC(=O)/N=C(/N)NCCC[C@@H](NC(=O)C(c1ccccc1)c1cccc(OCCCCNC(=O)[C@@H](Cc2ccc(-c3ccccc3)cc2)NC(=O)CCNC(=O)CN2CCN(CC(=O)O)CCN(CC(=O)O)CCN(CC(=O)O)CC2)c1)C(=O)NCc1ccc(O)cc1 (stereo partly drawn) [Compound 149, 2,2′,2″-(10-(2-((3-(((2R)-3-([1,1′-biphenyl]-4-yl)-1-((4-(3-((4R,Z)-9-amino-4-((4-hydroxybenzyl)carbamoyl)-2,11,16-trioxo-1-phenyl-3,8,10,12,15-pentaazaoctadec-9-en-1-yl)phenoxy)butyl)amino)-1-oxopropan-2-yl)amino)-3-oxopropyl)amino)-2-oxoethyl)-1,4,7,10-tetraazacyclododecane-1,4,7-triyl)triacetic acid]
< 10 nM | CCC(=O)NCCNC(=O)/N=C(/N)NCCC[C@@H](NC(=O)C(c1ccccc1)c1cccc(OCCCCNC(=O)[C@@H](CCCNC(=N)N)NC(=O)CCNC(=O)CN2CCN(CC(=O)O)CCN(CC(=O)O)CCN(CC(=O)O)CC2)c1)C(=O)NCc1ccc(O)cc1 (single isomer, unassigned) [Compound 141A]
< 10 nM | CCC(=O)NCCNC(=O)/N=C(/N)NCCC[C@@H](NC(=O)C(c1ccccc1)c1ccc(NCCCNC(=O)CCCCCNC(=O)CN2CCN(CC(=O)O)CCN(CC(=O)O)CCN(CC(=O)O)CC2)cc1)C(=O)NCc1ccc(O)cc1 (single isomer, unassigned) [Compound 154]
< 10 nM | CCC(=O)NCCNC(=O)/N=C(/N)NCCC[C@@H](NC(=O)C(c1ccccc1)c1ccc(NCCCNC(=O)[C@H]2CC[C@H](CNC(=O)CN3CCN(CC(=O)O)CCN(CC(=O)O)CCN(CC(=O)O)CC3)CC2)cc1)C(=O)NCc1ccc(O)cc1 (stereo partly drawn) [Compound 158, 2,2′,2″-(10-(2-((((1R,4r)-4-((3-((4-((4R,Z)-9-amino-4-((4-hydroxybenzyl)carbamoyl)-2,11,16-trioxo-1-phenyl-3,8,10,12,15-pentaazaoctadec-9-en-1-yl)phenyl)amino)propyl)carbamoyl)cyclohexyl)methyl)amino)-2-oxoethyl)-1,4,7,10-tetraazacyclododecane-1,4,7-triyl)triacetic acid]
< 10 nM | CCC(=O)NCCNC(=O)/N=C(/N)NCCC[C@@H](NC(=O)C(c1ccccc1)c1cccc(OCCCCNC(=O)[C@H](N)CCCCNC(=O)c2ccc(CNC(=O)CN3CCN(CC(=O)O)CCN(CC(=O)O)CCN(CC(=O)O)CC3)cc2)c1)C(=O)NCc1ccc(O)cc1 (single isomer, unassigned) [Compound 142B]
< 10 nM | CCC(=O)NCCNC(=O)/N=C(/N)NCCC[C@@H](NC(=O)C(c1ccccc1)c1cccc(OCCCCNC(=O)NNC(=O)CCNC(=O)CN2CCN(CC(=O)O)CCN(CC(=O)O)CCN(CC(=O)O)CC2)c1)C(=O)NCc1c(F)cc(O)cc1F (single isomer, unassigned) [Compound 166]

Same assay, conditions: read-out: hNPY.R binding Ki* ††

Compound | Ki
CCC(=O)NCCNC(=O)/N=C(/N)NCCC[C@@H](NC(=O)C(c1ccccc1)c1ccc(OCCCNc2c(NCCNC(=O)CN3CCN(CC(=O)O)CCN(CC(=O)O)CCN(CC(=O)O)CC3)c(=O)c2=O)cc1)C(=O)NCc1ccc(O)cc1 (single isomer, unassigned) [Compound 136A] | < 10 nM
